Patent US9526712B2, “Methods and agents for preventing and treating plasma cell dyscrasias” (NEW YORK UNIVERSITY, priority 2013, dated 2016)

What was measured:
ARP1 MM cells = test: Cellular proliferation by MTT assay (CellTiter 96 AQ); type: cell-based; details: Homo sapiens, ARP-1, 72 hr treatment
Excerpt: (§1) The growth inhibitory activity of SAC was further characterized by MTT assay. These experiments assess cellular proliferation using the CellTiter 96 AQ Non-Radioactive Cell Proliferation Assay (Promega). This assay determines the number of living cells based upon the bioreduction of MTS tetrazolium compound into a colored formazan product. The quantity of product, as measured by absorbance on a microplate reader at 495 nm, is directly proportional to the number of living cells in culture. All cells were seeded in 96-well plates at a density of 5,000 cells per well. After overnight incubation, cells were treated with SAC at the indicated concentrations. After a 72 hr incubation period, proliferation was assessed. Cellular proliferation was expressed as a percentage with vehicle-treated cells set at 100%. See, for example, FIG. 2.
(§2) The cell proliferation assay performed to generate the results presented in FIG. 5, for example, was performed as described elsewhere herein. Briefly, all cells were seeded in 96-well plates at a density of 5000 cells per well. After overnight incubation, cells were treated with a candidate compound at concentrations ranging from 100 nM to 10000 nM. After a 72 hr incubation period, proliferation was assessed using a tetrazolium dye reduction assay (CellTiter 96 AQueous Non-Radioactive Cell Proliferation Assay; Promega, Madison, Wis.). Absorbance was recorded on a microplate reader at 490 nm. Cellular proliferation was expressed as a percentage with vehicle-treated cells set at 100%. Each assay was performed in triplicate with mean values reported.

KMS11 MM cells [1] = test: as above; type: cell-based; details: Homo sapiens, KMS-11, 72 hr treatment
Excerpt: as §1, §2

[2] = system: KMS11 and ARP-1 MM cells expressing Gluc; test: Gluc (Gaussia luciferase) secretion screen; type: cell-based, human; details: 5 μM compound, 24 hours, % RLU relative to DMSO control
Excerpt: Using decreased protein processing in the secretory pathway as a measurable hallmark of ER stress, the screen described herein employs the naturally secreted Gaussia luciferase (Gluc) as a reporter that can be easily monitored through extracellular release of luciferase activity in real time. KMS11 and ARP-1 MM cells expressing Gluc were exposed to compounds in a natural products library in order to identify those which potentially induce ER stress as measured by inhibition of Gluc secretion. Both KMS11 and ARP-1 are human MM cells lines routinely used in the literature as in vitro models of MM. See, for example, Paterson et al., Br J Haematol, 2004, 124, 595-603; Pedranzini et al., Cancer Res, 2006, 66, 9714-9721; Stein et al., Clin Cancer Res, 2009, 15, 2808-2817; St-Germain J R. et al., Proc Natl Acad Sci USA, 2009, 106, 20127-20132; Gojo et al., Clin Cancer Res, 2002, 8, 3527-3538; Drucker et al., Carcinogenesis, 2006, 27, 197-204; Weiss et al., Br J Cancer, 2012, 107, 1844-1852; and Wang et al., Clin Cancer Res, 2006, 12, 49-56; the entire content of each of which is incorporated herein by reference. […] For screening, KMS11 and ARP1 cells were seeded in 96-well plates and treated with 5 μM of compounds from the Spectrum library (Microsource Discoveries) for 24 hours. Conditioned medium from each compound treatment was harvested to assay Gluc secretion alongside samples treated with DMSO alone, BTZ and TM as controls. Compounds of interest were considered to be those that inhibit Gluc secretion in both cell lines at least 30% after 24 hours treatment. See, for example, FIG. 1. […] For screening, […] Conditioned medium from each compound treatment was harvested to assay Gluc secretion alongside samples treated with DMSO alone, BTZ and TM as controls. Compounds of interest were considered to be those that inhibit Gluc secretion in both cell lines by at least 30% after 24 hours treatment. […]

[3] = system: bone marrow (BM) mononuclear cells isolated from a patient with smoldering multiple myeloma (SMM); test: Cellular proliferation of SMM bone marrow mononuclear cells; type: cell-based, human; details: 100 nM to 10000 nM, 72 hr
Excerpt: To explore the effects of SAC in the context of SMM, the present inventors tested the activity of SAC in bone marrow (BM) mononuclear cells isolated from a patient with smoldering multiple myeloma (SMM). To isolate the BM mononuclear cells, heparinized BM samples were freshly obtained from a SMM patient, diluted in PBS, and subjected to Ficoll-Hypaque density separation. Mononuclear cells are carefully collected from the PBS-Ficoll interface, washed in PBS and pelleted. The cell proliferation assay was performed by seeding the SMM BM mononuclear cells in 96-well plates at a density of 5000 cells per well. After overnight incubation, cells were treated with SAC at concentrations ranging from 100 nM to 10000 nM. After a 72 hr incubation period, proliferation was assessed using a tetrazolium dye reduction assay (CellTiter 96 AQueous Non-Radioactive Cell Proliferation Assay; Promega, Madison, Wis.). Absorbance was recorded on a microplate reader at 490 nm. Cellular proliferation was expressed as a percentage with vehicle-treated cells set at 100%. Each assay was performed in triplicate with mean values reported.

KMS11 MM cells [4] = test: Western blotting of UPR markers and apoptotic marker; type: cell-based, human; details: western blot
Excerpt: In order to investigate the mechanism of SAC mediated ER stress response, the present inventors evaluated key unfolded protein response (UPR) markers including phospho-eIF2α and BIP as well as the apoptotic marker cleaved PARP by standard western blotting techniques. […] See also FIG. 3.

[5] = system: KMS11 and ARP1 multiple myeloma cells; test: XBP1 cleavage assay (semi-quantitative RT-PCR); type: cell-based, human; details: 0.5 uM SAC, 24 hours
Method: The XBP1 cleavage assay used to generate the results presented in FIG. 6 was performed as follows. KMS11 and ARP1 cells were treated with 0.5 uM SAC or 10 ng/ml tunicamycin (TM, positive control) for 24 hours. Total RNA was isolated from lysed cells with the RNeasy Mini kit (Qiagen, Germantown, Md., USA). XBP1 splicing was assessed by semi-quantitative RT-PCR as described previously (Lin, et al. Science, 2007. 318(5852):944-9; Manga et al. Pigment Cell Melanoma Res, 2010. 23(5):627-34; the entire content of each of which is incorporated herein by reference). cDNA was produced from total RNA preps using ImProm-II Reverse Transcription System (Promega). Primers spanning the fragment of XBP1 containing the intron targeted by Irela were used: 5′-[…]-3′ and 5′-[…]-3′. The thermal PCR cycling conditions are as follows: 95° C. for 5 min, 95° C. for 1 min, 58° C. for 30 s, 72° C. for 30 s, and 72° C. for 5 min with 35 cycles of amplification. In order to properly distinguish the PCR products, samples were digested with Pst1 (New England Biolabs, Ipswich, Mass., USA) that only cuts the unspliced cDNA (Calfon et al. Nature, 2002. 415(6867):92-6). Products were then separated on a 2.0% agarose/1× TAE gel and visualized by ethidium bromide.

[6] = system: panel of 60 different cancer cell lines; test: NCI 60 cell screen growth inhibitory activity; type: cell-based; details: NCI 60 cell panel
Excerpt: Although SAC has been used to treat other types of cancer including colon, lung, breast and liver, the present inventors are unaware of any studies pertaining to its efficacy in MM, MGUS or SMM. One major difference between these types of cancers relates to the fact that those that have been assessed with regard to SAC' s efficacy are solid tumors, whereas MM is a blood cancer. Further to this point, the present inventors submitted SAC for analysis in the Developmental Therapeutics Program at the NCI/NIH. The growth inhibitory activity of SAC was assessed in the NCI 60 cell screen, which is a panel of 60 different cancer cell lines. […] SAC anti-cancer activity must, therefore, be determined empirically for each cancer, due to the lack of predictability of response. Therefore, a compound's ability to act as a therapeutic agent in one cancer, e.g. colon, is not necessarily predictive of its properties with respect to a different cancer, even a related cancer. It is also noteworthy that no MM cell lines are represented in the 60 cell panel. This underscores the fact that, in advance of the present findings, MM cell lines were not thought to be suitable targets for examining SAC anti-cancer activity.

SMILES	IC50 (ARP1 MM cells) [µM]	IC50 (KMS11 MM cells [1]) [µM]	inhibition of Gluc secretion [2]	inhibition of Gluc secretion ([2]; listed as alliicin)	inhibition of cellular proliferation [3]	BIP expression (KMS11 MM cells [4])	cleavage of PARP (KMS11 MM cells [4])	phosphorylation of eIF2-α (KMS11 MM cells [4])	splicing of XBP1 [5]	mean growth percent across all 60 cell lines [6]
CCCSC[C@H](N)C(=O)O [SPC, S-propyl cysteine, reference compound]	> 10	> 10								
C=CC[S+]([O-])C[C@H](N)C(=O)O (stereo partly shown) [alliin, Allylcysteine sulfoxide]			not found to be effective at inhibiting GLUC secretion	did not exhibit an ability to target ER stress mediated pathways						
C=CCSC[C@H](N)C(=O)O [SAC, S-allylcysteine]	1.9	1.5	inhibited Gluc secretion as effectively as 5 μM BTZ		dose-dependent inhibition of cellular proliferation	increased BIP expression	cleavage of PARP	enhanced phosphorylation of eIF2-α	enhanced splicing of the UPR transcription factor XBP1	106
